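Assay format: 96-well plates, 48-hour exposure. GI50 = concentration required for 50% inhibition of growth.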 The source made the active and inactive calls. Cut-off read from the data, not from the text of the source: active = GI50 up to about 1.1 µM and inactive = higher.
What was measured:
Experiment in all cases: DTP human tumour cell line panel, 48 h
COLO 205 = system: COLO 205
OVCAR-5 = system: OVCAR-5
KM12 = system: KM12
SF-539 = system: SF-539
SN12C = system: SN12C
M14 = system: M14
DLD-1 = system: DLD-1
SR = system: SR
XF498 = system: XF498
HL-60 = system: HL-60
UO-31 = system: UO-31
A549 = system: A549
DMS-114 = system: DMS-114
MOLT-4 = system: MOLT-4
LXFL 529 = system: LXFL 529
TK-10 = system: TK-10
OVCAR-3 = system: OVCAR-3

Structure (SMILES) | GI50 (COLO 205) | GI50 (OVCAR-5) | GI50 (KM12) | GI50 (SF-539) | GI50 (SN12C) | GI50 (M14) | GI50 (DLD-1) | GI50 (SR) | GI50 (XF498) | GI50 (HL-60) | GI50 (UO-31) | GI50 (A549) | GI50 (DMS-114) | GI50 (MOLT-4) | GI50 (LXFL 529) | GI50 (TK-10) | GI50 (OVCAR-3)
CC1(C)CCC[C@@]2(C)C1CCC1(C)C(CCc3ccoc3)/C(=C/OS(=O)(=O)O)CCC12 (stereo not given in full) | 54.6 µM (inactive) | > 100 µM (inactive) | > 100 µM (inactive) | > 100 µM (inactive) | > 100 µM (inactive) | 42.7 µM (inactive) | 34.5 µM (inactive) | 23.1 µM (inactive) | > 100 µM (inactive) | 37.1 µM (inactive) | 72.3 µM (inactive) | > 100 µM (inactive) | 34.6 µM (inactive) | 23.6 µM (inactive) | 50 µM (inactive) | > 100 µM (inactive) | > 100 µM (inactive)
CS/C(=N/C#N)NCCc1c[nH]c2ccccc12 | > 100 µM (inactive) | > 100 µM (inactive) | > 100 µM (inactive) | > 100 µM (inactive) | > 100 µM (inactive) | > 100 µM (inactive) | > 100 µM (inactive) | 60.3 µM (inactive) | 34.8 µM (inactive) | 55.2 µM (inactive) | 49 µM (inactive) | > 100 µM (inactive) | 60.1 µM (inactive) | 80.7 µM (inactive) | > 100 µM (inactive) | > 100 µM (inactive) | > 100 µM (inactive)
COC(=O)C(C(=O)C(=O)Nc1ccc(C)cc1)c1nc2ccc([N+](=O)[O-])cc2nc1O (stereo not given) | 53.5 µM (inactive) | > 100 µM (inactive) | > 100 µM (inactive) | > 100 µM (inactive) | > 100 µM (inactive) | > 100 µM (inactive) | > 100 µM (inactive) | > 100 µM (inactive) | > 100 µM (inactive) | 35.6 µM (inactive) | 66.1 µM (inactive) | > 100 µM (inactive) | 21.3 µM (inactive) | 92.9 µM (inactive) | 51.6 µM (inactive) | > 100 µM (inactive) | > 100 µM (inactive)
O=S(O)CCCSSc1ccccc1 | 43.4 µM (inactive) | > 100 µM (inactive) | 31.1 µM (inactive) | 25.3 µM (inactive) | 25.6 µM (inactive) | 37.1 µM (inactive) | 41.9 µM (inactive) |  | 98.9 µM (inactive) |  | 19.8 µM (inactive) | 25.5 µM (inactive) | 16.8 µM (inactive) | 17.5 µM (inactive) | 32.5 µM (inactive) | 40.1 µM (inactive) | 53.8 µM (inactive)
CCCc1c(C(=O)OCC)[nH]c(C(=O)CCC(=O)c2[nH]c(C(=O)OCC)c(CCC)c2C(=O)OCC)c1C(=O)OCC | > 100 µM (inactive) | > 100 µM (inactive) | > 100 µM (inactive) | > 100 µM (inactive) | > 100 µM (inactive) | > 100 µM (inactive) | > 100 µM (inactive) | > 100 µM (inactive) | 54.3 µM (inactive) | > 100 µM (inactive) | > 100 µM (inactive) | > 100 µM (inactive) | > 100 µM (inactive) | > 100 µM (inactive) | > 100 µM (inactive) | > 100 µM (inactive) | 68.5 µM (inactive)
O=C(Cc1ccccc1)NN1C(=O)C(Cl)C1c1ccccc1Cl (stereo not given) | > 100 µM (inactive) | > 100 µM (inactive) | > 79.3 µM (inactive) | > 100 µM (inactive) | > 75.9 µM (inactive) | > 100 µM (inactive) | > 69.2 µM (inactive) | 23.2 µM (inactive) | > 75 µM (inactive) | 30.1 µM (inactive) | > 100 µM (inactive) | > 100 µM (inactive) | 32.6 µM (inactive) | 26.2 µM (inactive) | 33.6 µM (inactive) | > 100 µM (inactive) | > 62.7 µM (inactive)
CC(=O)c1cccc(N2COC(C)(C)c3nc4ccccc4n3C2)c1 | > 100 µM (inactive) |  | > 100 µM (inactive) | > 100 µM (inactive) | > 100 µM (inactive) | > 100 µM (inactive) | > 100 µM (inactive) | > 100 µM (inactive) | > 100 µM (inactive) | > 100 µM (inactive) | > 100 µM (inactive) | > 100 µM (inactive) | > 100 µM (inactive) | > 100 µM (inactive) | > 100 µM (inactive) | > 100 µM (inactive) | > 100 µM (inactive)
O=C1C(Br)=C[C@H]2C3C=CC(Br)(C3=O)[C@@H]12 (stereo not given in full) | 9.75 µM (inactive) | 15.6 µM (inactive) | 11.9 µM (inactive) | 13.3 µM (inactive) | 13.2 µM (inactive) | 9.33 µM (inactive) | 7.57 µM (inactive) |  | 17.5 µM (inactive) | 2.43 µM (inactive) | 16.7 µM (inactive) | 15.3 µM (inactive) | 14 µM (inactive) | 2.3 µM (inactive) | 10.2 µM (inactive) |  | 13.6 µM (inactive)
O=C1CCC(=O)c2sccc2N1 | > 100 µM (inactive) | > 100 µM (inactive) | > 100 µM (inactive) | > 100 µM (inactive) | > 100 µM (inactive) | > 100 µM (inactive) | > 100 µM (inactive) |  | > 100 µM (inactive) | > 100 µM (inactive) | > 100 µM (inactive) | > 100 µM (inactive) | > 100 µM (inactive) | > 100 µM (inactive) | > 100 µM (inactive) | > 100 µM (inactive) | > 100 µM (inactive)
CCCn1c(SCC)c2cc3cc4ccccc4cc3cc2c1-c1nc(F)nc(F)n1 | > 100 µM (inactive) | > 100 µM (inactive) | > 100 µM (inactive) | > 100 µM (inactive) | > 100 µM (inactive) | > 100 µM (inactive) |  | > 100 µM (inactive) | > 100 µM (inactive) | > 100 µM (inactive) | > 100 µM (inactive) | > 100 µM (inactive) | > 100 µM (inactive) | > 100 µM (inactive) | > 100 µM (inactive) | > 100 µM (inactive) | > 100 µM (inactive)
CC1CC(c2cccc3c2OCO3)=Nc2ccccc2S1 (stereo not given) | > 100 µM (inactive) | > 100 µM (inactive) | > 100 µM (inactive) | > 100 µM (inactive) | > 100 µM (inactive) | > 100 µM (inactive) | > 100 µM (inactive) |  | > 100 µM (inactive) | > 100 µM (inactive) | > 100 µM (inactive) | > 100 µM (inactive) | 65.6 µM (inactive) | > 100 µM (inactive) | > 100 µM (inactive) | > 100 µM (inactive) | > 100 µM (inactive)
CCOc1ccc(NC(=O)C2=C(C)NC(C)=C(C(=O)Nc3ccc(OCC)cc3)C2c2ccccc2)cc1 | > 100 µM (inactive) | > 100 µM (inactive) | 41.7 µM (inactive) | > 100 µM (inactive) | > 100 µM (inactive) | > 100 µM (inactive) | 97.7 µM (inactive) |  | > 100 µM (inactive) | 29.9 µM (inactive) | 29.2 µM (inactive) | > 100 µM (inactive) | 44.2 µM (inactive) | 44.8 µM (inactive) | 51.3 µM (inactive) | > 100 µM (inactive) | > 100 µM (inactive)
O=C(CC(CC(=O)Oc1c(Br)cc(Br)cc1C(=O)O)C(=O)Oc1c(Br)cc(Br)cc1C(=O)O)Oc1c(Br)cc(Br)cc1C(=O)O | > 100 µM (inactive) | 45.1 µM (inactive) | 50.7 µM (inactive) | 48.1 µM (inactive) | 52.1 µM (inactive) | 91.6 µM (inactive) | 65 µM (inactive) |  | 0.504 µM (active) | 43.7 µM (inactive) | 36.5 µM (inactive) | 47.5 µM (inactive) | 31.8 µM (inactive) | 46.5 µM (inactive) | 58.6 µM (inactive) | 51.4 µM (inactive) | 47.8 µM (inactive)
CC(=O)OCC1OC(n2cc(F)c(=O)[nH]c2=O)C(NC(=O)N(CCCl)N=O)C(OC(C)=O)C1OC(C)=O (stereo not given) | > 100 µM (inactive) |  | > 100 µM (inactive) | 29.3 µM (inactive) | > 100 µM (inactive) | > 100 µM (inactive) | > 100 µM (inactive) | 97.9 µM (inactive) | 36.4 µM (inactive) | 51.5 µM (inactive) | > 100 µM (inactive) | 89.7 µM (inactive) | 81.3 µM (inactive) | 87.1 µM (inactive) | > 100 µM (inactive) | > 100 µM (inactive) | > 100 µM (inactive)
CC(=O)Nc1cc2c(s1)CCC1CC(=O)NN=C21 (stereo not given) | > 100 µM (inactive) | > 100 µM (inactive) | > 100 µM (inactive) | > 100 µM (inactive) | > 100 µM (inactive) | > 100 µM (inactive) |  | > 100 µM (inactive) | > 100 µM (inactive) | > 100 µM (inactive) | > 100 µM (inactive) | > 100 µM (inactive) | > 100 µM (inactive) | > 100 µM (inactive) | > 100 µM (inactive) | > 100 µM (inactive) | > 100 µM (inactive)
CN(C)c1ccc(-c2nc(N)nc3c2CCCC3)cc1 | 42.5 µM (inactive) | > 100 µM (inactive) | 54 µM (inactive) | > 100 µM (inactive) | 37.9 µM (inactive) | 68.1 µM (inactive) | 54.5 µM (inactive) |  | 19.4 µM (inactive) | 29.3 µM (inactive) | 41.5 µM (inactive) | 52.8 µM (inactive) | 38.5 µM (inactive) | 30.2 µM (inactive) | 63.8 µM (inactive) | 49.1 µM (inactive) | 23.4 µM (inactive)
CC(C)[C@@H](COC(C)(C)C)/N=C/N1CCc2c([nH]c3ccccc23)C1 | > 100 µM (inactive) | > 100 µM (inactive) | > 100 µM (inactive) | > 100 µM (inactive) | > 100 µM (inactive) | > 100 µM (inactive) | > 100 µM (inactive) |  | 36.1 µM (inactive) | > 100 µM (inactive) | 84.9 µM (inactive) | > 100 µM (inactive) | > 100 µM (inactive) | > 100 µM (inactive) | > 100 µM (inactive) | > 100 µM (inactive) | > 100 µM (inactive)

From ChEMBL document CHEMBL1201862, “PubChem BioAssay data set” (2004)
